In patent publication US6399629B1, “Efflux pump inhibitors” (priority 1998, dated 2002):

System: Pseudomonas aeruginosa PAM1001
Experiment: checkerboard assay (broth microdilution): levofloxacin MIC in presence of efflux pump inhibitor
Assay type: cell-based
Experimental: For compounds labeled with the prefix ‘M’, potentiation effect is observed by the reduction of the minimum inhibitory concentration of levofloxacin in the presence of the experimental efflux pump inhibitor. The activity of efflux pump inhibitors (EPI) in combination with fluoroquinolones, such as levofloxacin, is assessed by the checkerboard assay (Antimicrobial Combinations. In Antibiotics in Laboratory Medicine, Ed. Victor Lorian, M.D., Fourth edition, 1996, pp 333-338) using broth microdilution method performed as recommended by the National Committee for Clinical Laboratory Standards (1997). Methods for Dilution of Antimicrobial Susceptibility Tests for Bacteria That Grow Aerobically—Fourth Edition; Approved Standard. NCCLS Document M7-A4, Vol 17 No.2). The test organism used is Pseudomonas aeruginosa PAM1001. […] The compounds tabulated below are representative of the described invention.
In these assays, multiple dilutions of two drugs, namely the EPI and levofloxacin, are being tested, alone and in combination, at concentrations equal to, above and below their respective minimal inhibitory concentrations (MICs). In the case of EPI, most of these compounds are devoid of intrinsic antimicrobial activity and are tested up to the maximum concentration of 40 μg/mL. The MIC of levofloxacin against P. aeruginosa PAM1001 is 4 μg/mL.
The EPI tested are readily soluble in water and stock solutions are prepared at a final concentration of 2 mg/mL. Stock solutions are further diluted, according to the needs of a particular assay, in Mueller Hinton Broth (MHB). Stock solution can be stored at −80° C. Quinolones are solubilized according to the instructions of the manufacturers, at a concentration of 1 mg/mL. They are then further diluted in MHB. Stock solution can be stored at −80° C.
The checkerboard assay is performed in microtiter plates. Levofloxacin is diluted in the x axis, each column containing a single concentration of levofloxacin. The EPI is diluted in the y axis, each row containing an equal concentration of EPI. The result of these manipulations is that each well of the microtiter plate contains a unique combination of concentrations of the two agents. Each EPI are tested independently.
The assay is performed in MHB with a final bacterial inoculum of 5×10^5 CFU/mL (from an early-log phase culture). Microtiter plates are incubated during 20 h at 35° C. and are read using a microtiter plate reader (Molecular Devices) at 650 nm as well as visual observation using a microtiterplate reading mirror.

| SMILES | Levofloxacin MIC Against P. aerugiuosa PAM1001 in Presence of Efflux Pump Inhibitor (EPI), Minimum Inhibitory Concentration (EPI Conc. 0 μg/mL) [µg/mL] | Levofloxacin MIC Against P. aerugiuosa PAM1001 in Presence of Efflux Pump Inhibitor (EPI), Minimum Inhibitory Concentration (EPI Conc. 0.625 μg/mL) [µg/mL] | Levofloxacin MIC Against P. aerugiuosa PAM1001 in Presence of Efflux Pump Inhibitor (EPI), Minimum Inhibitory Concentration (EPI Conc. 1.25 μg/mL) [µg/mL] | Levofloxacin MIC Against P. aerugiuosa PAM1001 in Presence of Efflux Pump Inhibitor (EPI), Minimum Inhibitory Concentration (EPI Conc. 2.5 μg/mL) [µg/mL] | Levofloxacin MIC Against P. aerugiuosa PAM1001 in Presence of Efflux Pump Inhibitor (EPI), Minimum Inhibitory Concentration (EPI Conc. 5 μg/ mL) [µg/mL] | Levofloxacin MIC Against P. aerugiuosa PAM1001 in Presence of Efflux Pump Inhibitor (EPI), Minimum Inhibitory Concentration (EPI Conc. 10 μg/mL) [µg/mL] | Levofloxacin MIC Against P. aerugiuosa PAM1001 in Presence of Efflux Pump Inhibitor (EPI), Minimum Inhibitory Concentration (EPI Conc. 20 μg/mL) [µg/mL] | Levofloxacin MIC Against P. aerugiuosa PAM1001 in Presence of Efflux Pump Inhibitor (EPI), Minimum Inhibitory Concentration (EPI Conc. 40 μg/mL) [µg/mL] |
| --- | --- | --- | --- | --- | --- | --- | --- | --- |
| NC[C@@H]1CN[C@@H](C(=O)N[C@H](CCc2ccccc2)C(=O)Nc2ccc3ncccc3c2)C1 [Compound M29, (2R,4R)-4-(Aminomethyl)-N-[(1R)-3-pheyl-1-(6-quinolylcarbamoyl)propyl]-2-pyrrolidinecarboxamide] | 4 | 4 | 4 | 2 | 1 | 0.25 | 0.06 | 0.03 |
| Cc1cc2nc(C(O)[C@@H](CCc3ccccc3)NC(=O)[C@@H]3C[C@@H](NC(=O)CN)CN3)oc2cc1C (mixture of isomers) [Compound M64, (2S,4R)-4-(2-Aminoacetamido)-N-[(1R)-1-[(RS)-(5,6-dimethyl-2-benzoxazoly)hydroxymethyl]-3-pheylpropyl]-2-pyrrolidinecarboxamide] | 4 | 4 | 4 | 4 | 4 | 4 | 4 | 0.015 |
| Cc1ccc2ncc(C(=O)N[C@@H](CCc3ccccc3)CNC(=O)[C@H]3C[C@H](CN)CN3)cc2c1 [Compound M62, (2R,4R)-4-(Aminomethyl)-N-[(2S)-2-(6-methyl-3-quinolylcarboxamido)-4-phenylbutyl]-2-pyrrolidinecaroxamide] | 4 | 4 | 4 | 4 | 4 | 2 | 0.5 | 0.015 |
| NC[C@@H]1CN[C@@H](C(=O)N[C@H](CCc2ccccc2)C(=O)Nc2cnc3ccc(F)cc3c2)C1 [Compound M35, (2R,4R)-4-(Aminomethyl)-N-[(1R)-3-pheyl-1-(6-fluoro-3-quinolylcarbamoyl)propyl]-2-pyrrolidinecarboxamide] | 4 | 4 | 4 | 4 | 2 | 0.5 | 0.03 | 0.03 |
| CN(C(=O)[C@@H]1C[C@@H](NC(=O)CN)CN1)[C@H](CCc1ccccc1)C(=O)Nc1cnc2ccccc2c1 [Compound M15, (2S,4R)-4-(2-Aminoacetamido)-N-methyl-N-[(1R)-3-phenyl-1-(3-quinolylcarbamoyl)propyl]-2-pyrrolidiecarboxamide] | 4 | 4 | 4 | 4 | 4 | 1 | 0.06 | 0.015 |
| NC[C@@H]1CN[C@@H](C(=O)NCc2nc3ccc(-c4ccccc4)cc3[nH]2)C1 [Compound M89, (2R,4R)-4-(Aminomethyl)-N-[(5-phenyl-2-benzimidaxolyl)methyl]-2-pyrrolidinecarboxamide] | 4 | 4 | 4 | 4 | 2 | 2 | 0.03 | 0.03 |
| NC[C@@H]1CN[C@@H](CO[C@@H](CCc2ccccc2)C(=O)Nc2cnc3ccccc3c2)C1 [Compound M69, (2R,4R)-4-(Aminomethyl)-2-[((1S)-3-phenyl-1-(3-quiolylcarbamoyl)propyl)oxymethyl]pyrrolidine] | 4 | 4 | 2 | 2 | 0.125 | 0.125 | 0.125 | 0.06 |
| NC[C@@H]1CN[C@@H](C(=O)N[C@H](CCc2ccccc2)C(=O)NCc2cnc3ccccc3c2)C1 [Compound M32] | 4 | 4 | 4 | 4 | 2 | 1 | 0.25 | 0.25 |
